Data on ten molecules can be found in patent US11130780B2, “Inhibitors of growth factor activation enzymes” (Washington University, priority 2015, dated 2021).

Values joined by “and” are separate entries in the source; they are usually repeats but may differ in a detail not shown here. Identical values can stand only once. Like-named read-outs stand apart in the source and are kept apart here.

Type in all cases: biochemical
Experiment [1] has as its target T1, HGFA (Homo sapiens, UniProt Q04756).
T1 construct: His6 tag (N); seven amino acid spacer and seven amino acid TEV cleavage site (N); Honey Bee melittin signal peptide (N); made in house; host or cells: High 5 insect cells (baculovirus; virus raised in Sf9)
T1 sequence (Q04756 373-655): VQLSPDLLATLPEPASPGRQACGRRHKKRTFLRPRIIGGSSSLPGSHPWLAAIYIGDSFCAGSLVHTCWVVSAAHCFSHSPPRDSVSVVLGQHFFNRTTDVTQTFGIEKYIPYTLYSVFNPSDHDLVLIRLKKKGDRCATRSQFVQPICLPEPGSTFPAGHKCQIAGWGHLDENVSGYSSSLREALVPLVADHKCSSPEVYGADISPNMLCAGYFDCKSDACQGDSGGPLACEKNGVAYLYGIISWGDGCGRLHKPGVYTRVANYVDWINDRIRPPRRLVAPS
Nature of the experiment: Chromogenic kinetic enzyme inhibitor assay of HGFA. The note with it: Table 4.1; chromogenic substrate Pefachrome FVIIa. From the text: This PCR product was cloned into the SfoI-HindIII sites of a modified pFastBac HT baculovirus expression vector (Addgene, Cambridge, Mass.). This vector contains a six amino His tag followed by a seven amino spacer and a seven amino acid TEV cleavage site placed immediately downstream of the Honey Bee melittin signal peptide. Using a modified Bac to Bac Expression System (Life Technologies, Carlsbad, Calif.), recombinant HGFA bacmids were obtained by transforming DH10Bac Escherichia coli cells. To obtain HGFA containing baculovirus, purified bacmids were transfected into Sf9 insect cells. After 5 days in culture at 27° C., media was harvested from transfected Sf9 cells. This media was used to prepare baculovirus infected insect cells (BIICs). These BIIICs were used to infect High 5 insect cells. Four days post infection, media was harvested and recombinant protein prepared as follows. Media was chilled to 4° C. and spun at 4000×g for 20 minutes (all subsequent steps were performed at 4° C. unless noted). […] Concentrated media was then buffer exchanged in two steps, five volumes of 50 mM Na-phosphate, 500 mM NaCl, pH 6.2, followed by five volumes of 50 mM Na-phosphate, 500 mM NaCl, pH 7.5. […] After mixing this slurry for 12 hours, nickel agarose beads were allowed to settle by gravity and then loaded into a column. Beads were washed with buffer (25 mM Na-phosphate, 500 mM NaCl, 25 mM imidazole, pH 8) and the bound protein eluted using (25 mM Na-phosphate, 500 mM NaCl, 250 mM imidazole, pH 8). Using a Amicon Ultra-4 Centrifugal filters (#UFC801008, Merck Millipore, Ltd., Tullagreen, Ireland), peak protein fractions were concentrated and run over a Superdex-200 10/300 GL column (GE Healthcare Life Sciences, Piscataway, N.J.) in 10 mM Tris, 200 mM NaCl, 0.2 mM EDTA, pH 8. HGFA containing fractions were pooled, concentrated, made 50% glycerol, and stored at minus 20° C. Protein was quantitated using a modified Lowry protein assay (#500-0006, Bio-Rad Laboratories, Hercules, Calif.).
Using Gen 5 2.00 software program (Biotek, Winnoski, Vt.), a four parameter curve fit was used to determine the inhibitor IC50s from a plot of the mean reaction velocity versus the inhibitor concentration. The IC50 values represent the average of three separate experimental determinations.

Experiment [2] has as its target thrombin (Homo sapiens, UniProt P00734). Nature of the experiment: Chromogenic kinetic enzyme assay of thrombin. The note with it: for Ki: read-out: Thrombin Ki. The protocol:
Inhibitors (11-pt serial dilutions, 0-20 μM final concentration) were serially diluted in DMSO (2% DMSO final concentration) and then mixed with recombinant thrombin (0.15 nM final concentration) or Factor Xa (0.35 nM final concentration) in TNC buffer (25 mM Tris, 150 mM NaCl, 5 mM CaCl2, 0.01% TRITON X-100, pH 8) using clear 384 well plates. […] Changes in absorbance at 405 nm were measured over time in a Biotek Synergy 2 plate (Winnoski, Vt.). Using GraphPad Prism version 6.04 software program, (GraphPad Software, San Diego, Calif., www.graphpad.com), a four parameter curve fit was used to determine the inhibitor IC50s from a plot of the mean reaction velocity versus the inhibitor concentration. Ki values were calculated from the IC50 values using the Cheng and Prusoff equation (Ki=IC50/(1+[S]/Km).

For experiment [3], the target named is T2, matriptase (Homo sapiens, UniProt Q9Y5Y6).
T2 construct: Charles Craik, UCSF (obtained from another laboratory)
T2 sequence (Q9Y5Y6 615-855 limits assumed): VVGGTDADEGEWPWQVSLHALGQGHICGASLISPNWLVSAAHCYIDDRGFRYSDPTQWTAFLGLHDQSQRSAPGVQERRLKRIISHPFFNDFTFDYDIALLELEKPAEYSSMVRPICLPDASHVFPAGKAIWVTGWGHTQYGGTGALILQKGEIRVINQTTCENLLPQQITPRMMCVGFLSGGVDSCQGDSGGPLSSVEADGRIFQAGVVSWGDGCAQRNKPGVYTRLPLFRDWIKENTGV
The experiment can be described thus: Fluorescent kinetic enzyme inhibitor assay of matriptase. Particulars: Fluorogenic Assay. On the procedure: (§1) Inhibitors (11-pt serial dilutions, 0-20 μM final concentration in reaction) were serially diluted in DMSO (2% DMSO final concentration) and then mixed with either recombinant serine protease domain of HGFA [Z. Han, P. K. Harris, D. E. Jones, R. Chugani, T. Kim, M. Agarwal, W. Shen, S. A. Wildman, J. W. Janetka, Acs Med Chem Lett 2014, 5, 1219-1224], matriptase (Charles Craik, UCSF) or hepsin* (#4776-SE-010, R&D Systems, Minneapolis, Minn.) in black 384 well plates (Corning #3575. Corning, N.Y.). […] The final substrate concentrations for all assays were at the Km for the respective enzymes. Changes in fluorescence (excitation at 380 nm and emission at 460 nm) were measured at room temperature over time in a Biotek Synergy 2 plate reader (Winnoski, Vt.). Using GraphPad Prism version 6.04 software program, (GraphPad Software, San Diego, Calif., www.graphpad.com), a four parameter curve fit was used to determine the inhibitor IC50s from a plot of the mean reaction velocity versus the inhibitor concentration. The IC50 values represent the average of three separate experimental determinations.

Experiment [4] has as its target T1, HGFA. The experiment can be described thus: Fluorescent kinetic enzyme inhibitor assay of HGFA. Particulars: read-out: HGFA Ki.
Text: Using primers identified as SEQ ID NO 1, SEQ ID NO 2, and standard PCR protocols, the nucleotide sequence encoding amino acids 373-655 of HGFA was synthesized. This PCR product was cloned into the SfoI-HindIII sites of a modified pFastBac HT baculovirus expression vector (Addgene, Cambridge, Mass.). This vector contains a six amino His tag followed by a seven amino spacer and a seven amino acid TEV cleavage site placed immediately downstream of the Honey Bee melittin signal peptide. Using a modified Bac to Bac Expression System (Life Technologies, Carlsbad, Calif.), recombinant HGFA bacmids were obtained by transforming DH10Bac Escherichia coli cells. To obtain HGFA containing baculovirus, purified bacmids were transfected into Sf9 insect cells. After 5 days in culture at 27° C., media was harvested from transfected Sf9 cells. This media was used to prepare baculovirus infected insect cells (BIICs). These BIIICs were used to infect High 5 insect cells. Four days post infection, media was harvested and recombinant protein prepared as follows. Media was chilled to 4° C. and spun at 4000×g for 20 minutes (all subsequent steps were performed at 4° C. unless noted). Clarified media was passed first through a Whatman GF/B 1 um (#1821-047, GE Healthcare Life Sciences, Piscataway, N.J.) and then a 0.22 um PES membrane (#99955, TPP Techno Plastic Products AG, Trasadingen, Switzerland) and then concentrated using a Pall Centramate tangential flow system and Centramate T-series Cassette (#OS010T12, Pall Corporation, Port Washington, N.Y.). Concentrated media was then buffer exchanged in two steps, five volumes of 50 mM Na-phosphate, 500 mM NaCl, pH 6.2, followed by five volumes of 50 mM Na-phosphate, 500 mM NaCl, pH 7.5. The concentrated and buffered exchanged insect cell media was again filtered as above and made 25 mM imidazole (#1202, Sigma-Aldrich, St. Louis, Mo.) and was mixed with nickel agarose beads (#H-321-25, Gold Biotechnology, Inc., St. Louis Mo.). After mixing this slurry for 12 hours, nickel agarose beads were allowed to settle by gravity and then loaded into a column. Beads were washed with buffer (25 mM Na-phosphate, 500 mM NaCl, 25 mM imidazole, pH 8) and the bound protein eluted using (25 mM Na-phosphate, 500 mM NaCl, 250 mM imidazole, pH 8). Using a Amicon Ultra-4 Centrifugal filters (#UFC801008, Merck Millipore, Ltd., Tullagreen, Ireland), peak protein fractions were concentrated and run over a Superdex-200 10/300 GL column (GE Healthcare Life Sciences, Piscataway, N.J.) in 10 mM Tris, 200 mM NaCl, 0.2 mM EDTA, pH 8. HGFA containing fractions were pooled, concentrated, made 50% glycerol, and stored at minus 20° C. Protein was quantitated using a modified Lowry protein assay (#500-0006, Bio-Rad Laboratories, Hercules, Calif.).
as §1

For experiment [5], the target named is T3, hepsin (Homo sapiens, UniProt P05981).
T3 construct: purchased R&D Systems 4776-SE-010
T3 sequence (P05981 163-417 limits assumed): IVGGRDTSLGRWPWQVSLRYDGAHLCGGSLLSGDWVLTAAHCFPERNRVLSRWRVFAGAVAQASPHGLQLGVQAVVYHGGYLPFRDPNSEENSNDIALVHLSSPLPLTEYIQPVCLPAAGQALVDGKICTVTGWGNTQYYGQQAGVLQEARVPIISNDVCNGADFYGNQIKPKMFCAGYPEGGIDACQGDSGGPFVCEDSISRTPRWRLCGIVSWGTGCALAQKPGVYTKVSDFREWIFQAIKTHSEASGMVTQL
T3 sequence (P05981 45-162 partner limits assumed): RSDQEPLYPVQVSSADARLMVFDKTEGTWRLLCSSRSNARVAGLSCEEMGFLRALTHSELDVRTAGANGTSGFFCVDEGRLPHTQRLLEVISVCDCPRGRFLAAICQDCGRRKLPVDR
Nature of the experiment: Fluorescent kinetic enzyme inhibitor assay of hepsin. The note with it: Fluorogenic Assay, read-out: Hepsin Ki. The protocol:
as §1

The term IC50 denotes the concentration needed to halve the response being measured. Molecule `CC(=O)N[C@@H](Cc1c[nH]c2ccccc12)C(=O)N[C@@H](CCCCN)C(=O)N[C@@H](CC(C)C)C(=O)N[C@H](CCCNC(=N)N)C(=O)c1nccs1` [Compound 6b-1, Ac-WKLdR-kt] returned an IC50 in experiment [1] of 6.5 µM.

One may read the Km as the substrate concentration at which the rate is half of its maximum. As to `N=C(N)NCCC[C@H](NC(=O)[C@@H]1CCCCN1C(=O)[C@H](N)Cc1ccccc1)C(=O)Nc1ccc([N+](=O)[O-])cc1` [Compound S2238, D-Phe-Pip-Arg-pNA, reference compound], the Michaelis constant (Km) in experiment [2] (read-out: Km of chromogenic substrate for thrombin) turned out to be 14.5 µM.

For orientation: Ki means a measure of affinity in units of concentration, obtained from inhibition or displacement. `N=C(N)c1cccc(C[C@H](NS(=O)(=O)c2ccc3ccccc3c2)C(=O)N2CCC[C@@H](NC(=O)OCc3ccccc3)C2)c1` [Compound 25f, Benzyl (R)-1-((S)-3-(3-carbamimidoylphenyl)-2-(naphthalene-2-sulfonamido)propanoyl)piperidin-3-ylcarbamate]: the Ki was 4.9 µM in experiment [3] (Table 9.2); more than 50 µM in experiment [4] (Table 9.2, Fluorogenic Assay); 2.8 µM in experiment [5] (Table 9.2).

Consider `CC(C)c1cc(C(C)C)c(S(=O)(=O)N[C@@H](Cc2cccc(C(=N)N)c2)C(=O)N2CCN(C(=O)C3CCN(C(=N)N)CC3)CC2)c(C(C)C)c1` [JWJ-I-135], for which the Ki in experiment [2] (Table 9.4) was more than 2 µM; in experiment [4] (Table 9.1, Fluorogenic Assay), 17.8 µM.

Take `N=C(N)c1cccc(C[C@H](NS(=O)(=O)c2ccc3ccccc3c2)C(=O)N2CCN(C(=O)NCc3ccccc3)CC2)c1` [Compound 17a, (S)—N-Benzyl-4-(3-(3-carbamimidoylphenyl)-2-(naphthalene-2-sulfonamido)propanoyl)piperazine-1-carboxamide]: the Ki in experiment [3] (Table 9.1) is 2.06 µM and 2.56 µM; in experiment [4] (Table 9.1, Fluorogenic Assay, listed as FMF-1-279-003), 14 µM; in experiment [4] (Table 9.1, Fluorogenic Assay) it was 14 µM; in experiment [5] (Table 9.1) it was 1 µM and 1.04 µM.

Take `Cc1ccc(S(=O)(=O)N[C@@H](Cc2cccc(C(=N)N)c2)C(=O)N2CCC(c3ccccc3)CC2)cc1` [Compound 25b, (S)-3-(2-(4-Methylphenylsulfonamido)-3-oxo-3-(4-phenylpiperidin-1-yl)propyl)benzimidamide]: the inhibition constant Ki in experiment [3] (Table 9.1) was 0.57 µM; in experiment [4] (Table 9.1, Fluorogenic Assay) it was 19.9 µM; in experiment [5] (Table 9.1), 4.8 µM.

On to `N=C(N)c1cccc(C[C@H](NS(=O)(=O)c2ccc3ccccc3c2)C(=O)N2CCN(C(=O)c3csc4ccccc34)CC2)c1` [Compound 25e, (S)-3-(3-(4-(Benzo[b]thiophene-3-carbonyl)piperazin-1-yl)-2-(naphthalene-2-sulfonamido)-3-oxopropyl)benzimidamide], for which the inhibition constant (Ki) in experiment [3] (Table 9.1) was 1.2 µM; in experiment [4] (Table 9.1, Fluorogenic Assay) it was more than 50 µM; in experiment [5] (Table 9.1) it was 3.75 µM.

Consider `Cc1ccc(S(=O)(=O)N[C@@H](Cc2cccc(C(=N)N)c2)C(=O)N2CCCC(C(=O)NCCc3ccccc3)C2)cc1` (stereo partly drawn) [Compound 25c, 1-((S)-3-(3-Carbamimidoylphenyl)-2-(4-methylphenylsulfonamido)propanoyl)-N-phenethylpiperidine-3-carboxamide], for which the inhibition constant Ki in experiment [3] (Table 9.2) is 1.3 µM; in experiment [4] (Table 9.2, Fluorogenic Assay), more than 50 µM; in experiment [5] (Table 9.2) it was 0.67 µM.

As to `CC(=O)N[C@@H](CCCCN)C(=O)N[C@@H](CCCNC(=N)N)C(=O)N[C@@H](CC(C)C)C(=O)N[C@@H](CCCNC(=N)N)C(=O)c1nc2ccc(C(=O)NCc3ccc(C(=O)O)cc3)cc2s1` [Compound 7164, Ac-KRLR(SEQ ID NO: 8)-kbt-Benzyl-3-COOH], the Ki in experiment [2] (Table 6.2, headed Fluorogenic Assay) turned out to be 1.62 µM.

For the molecule `CC(C)c1cc(C(C)C)c(S(=O)(=O)N[C@@H](Cc2cccc(C(=N)N)c2)C(=O)N2CCN(c3ccccc3)CC2)c(C(C)C)c1` [Compound 27, (S)-3-(3-Oxo-3-(4-phenylpiperazin-1-yl)-2-((2,4,6-triisopropylphenyl)sulfonamido)propyl)benzimidamide], the inhibition constant (Ki) in experiment [3] (Table 9.1) came to 0.76 µM; in experiment [4] it was 22.2 µM; in experiment [5] (Table 9.1), 7.4 µM.
